The text below walks through data of patent publication US20020037872A1, “N6 heterocyclic 5' modified adenosine derivatives” (CV Therapeutics, Inc., priority 1999, published 2002).

The target of test [1] is T1, A1 adenosine receptor (Mesocricetus auratus, UniProt A0A1U8BVR4).
T1 construct: endogenous in cells; host or cells: DDT1 (DDT1 MF-2) hamster vas deferens smooth muscle cells
T1 sequence (A0A1U8BVR4 1-326): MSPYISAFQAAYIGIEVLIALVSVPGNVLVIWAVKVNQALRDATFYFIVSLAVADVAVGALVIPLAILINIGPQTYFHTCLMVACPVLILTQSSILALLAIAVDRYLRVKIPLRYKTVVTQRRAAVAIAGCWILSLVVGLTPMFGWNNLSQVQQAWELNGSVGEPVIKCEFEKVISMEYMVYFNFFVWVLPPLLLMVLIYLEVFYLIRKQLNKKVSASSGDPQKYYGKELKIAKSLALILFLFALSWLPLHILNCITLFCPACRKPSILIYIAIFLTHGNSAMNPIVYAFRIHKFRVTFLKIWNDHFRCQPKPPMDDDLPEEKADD
The test is described as follows: [35S]GTPγS binding assay, A1-agonist stimulated. Format: biochemical, hamster. The settings on record: agonist stimulated [35S]GTPγS binding, CPA = 100%. The protocol: (§1) Attached cells were washed twice with HBSS (2×10 ml), scraped free of the plate with the aid of a rubber policeman in 5 ml of 50 mM Tris-HCI buffer pH 7.4 at 4° C. and the suspension homogenized for 10 s. The suspension was then centrifuged at 27,000×g for 10 min. The pellet was resuspended in homogenization buffer by vortexing and centrifuged as described above. The final pellet was resuspended in 1 vol of 50 mM Tris-HCI buffer pH 7.4 containing 5 mM MgCl2 for A1 AdoR assays. For the [^35S]GTPγS binding assay the final pellet was resuspended in 50 mM Tris-HCI pH 7.4 containing 5 mM MgCl2, 100 mM NaCl and 1 mM dithiothreitol. This membrane suspension was then placed in liquid nitrogen for 10 min, thawed and used for assays. The protein content was determined by the method of Bradford (1976) using bovine serum albumin as standard.
A1-agonist stimulated [^35S]GTPγS binding was determined by a modification of the method described by Giersckik et al. (1991) and Lorenzen et al. (1993). […] Nonspecific binding was determined by the addition of 10 μM GTPγS. […] Previous reports have shown that agonist stimulated [^35S]GTPγS binding was dependent on the presence of GDP (Gierschik et al., 1991; Lorenzen et al., 1993; Traynor & Nahorski, 1995). […] In saturation experiments, 0.5 nM [^35S]GTPγS was incubated with 0.5-1000 nM GTPγS. At the end of the incubation, each suspension was filtered and the retained radioactivity determined as described above.
(In general: Binding of GTPγS marks nucleotide exchange on a G protein.)

Test [2] deals with T2, A1 receptor (Mesocricetus auratus, UniProt A0A1U8BVR4).
T2 construct: endogenous in cells; host or cells: DDT1 (DDT1 MF-2) hamster vas deferens smooth muscle cells
T2 sequence (A0A1U8BVR4 1-326): T1 sequence (A0A1U8BVR4 1-326)
The test is described as follows: Competitive binding assay, DDT1 cell membranes, [3H]CCPA. Also noted: species or system hamster. The settings on record: [3H]CCPA 2 nM, DDT1 cell membranes; read-out: Ki-DDT1 cell membrane. The protocol:
Cells were subcultured twice weekly by dispersion in Hank's Balanced Salt Solution (HBSS) without the divalent cations and containing 1 mM EDTA. The cells were then seeded in growth medium at a density of 1.2×10^5 cells per plate and experiments were performed 4 days later at approximately one day preconfluence.
as §1, with “assays.” for “assays. The protein content was determined by the method of Bradford (1976) using bovine serum albumin as standard.”
Competitive Binding Assay Pig striatum were prepared by homogenation in 50 mM Tris buffer (5× volume of tissue mass pH=7.4). After centrifilgation at 19,000 rpm for 25 minutes at 4° C., the supernatant was discarded, and the process was repeated twice. Compositions of this invention were assayed to determine their affinity for the A1 receptor in a pig striatum membrane prep or a DDT, membrane prep. Briefly, 0.2 mg of pig striatal membranes or DDT, cell membranes were treated with adenosine deaminase and 50 mM Tris buffer (pH=7.4) followed by mixing. To the pig membranes was added 2 μL of serially diluted DMSO stock solution of the compounds of this invention at concentrations ranging from 100 microM to 10 nM. The control received 2 microL of DMSO alone, then the antagonist [^3H] 8-cyclopentylxanthine (CPX) for pig striatum or the agonist [^3H] 2-chloro-6-cyclopentyladenosine (CCPA) for DDT, membranes in Tris buffer (50 mnM, pH of 7.4) was added to achieve a final concentration of 2 nM. After incubation at 23 C for 2 h, the solutions were filtered using a membrane harvester using multiple washing of the membranes (3×). The filter disks were counted in scintillation cocktail affording the amount of displacement of triated CPX or by the competitive binding compositions of this invention. In the case of the DDT1 cell membranes, some of the determinations of binding affinity (Ki) were made in the presence of Gpp(NH)p as noted in Table 1 (note: Gpp(NH)p shifts the receptor to a low affinity form). Greater than a 5 point curve was used to generate Ki's and the number of experiments is indicated in the column marked in Table 1 below.

Test [3] deals with T1, A1 adenosine receptor. The test is described as follows: cAMP assay (SPA) in DDT1 cells, forskolin-induced cAMP. The settings on record: normalized to full agonist CPA, 5 μM forskolin, 50 μM rolipram; for Emax: 10 min. Format: cell-based, hamster. The protocol: A scintillation proximity assay (SPA) using rabbit antibodies directed at cAMP using an added tracer of adenosine 3′,5′-cyclic phosphoric acid 2′-O-succinyl-3-[^125I]iodotyrosine methyl ester and fluoromicrospheres containing anti-rabbit specific antibodies as described by Amersham Pharmacia Biotech (Biotrak cellular communication assays). Briefly, DDT1 cells were cultured in clear bottomed 96 well microtiter plates with opaque wells at concentrations between 10^4 to 10^6 cells per well in 40 μl of HBSS at 37° C. (5% CO2 and 95% humidity). The partial or full A1 agonists (5 μl) of this invention were incubated at various concentrations with the DDT1 cells in the presence of rolipram (50 μM), and 5 μM forskolin for 10 min at 37° C. The cells were immediately lysed by treatment 5 μl of 10% dodecyltrirnethylammonium bromide followed by shaking using rnicroplate shaker. After incubation of the plate for 5 minutes, an imnuunoreagent solution (150 μl containing equal volumes of tracer, antiserum, and SPA fluorospheres) was added to each well followed by sealing the plate. After 15-20 h at 23° C., the amount of bound [^125] cAM to the fluoromicrospheres was determined by counting in a microtitre plate scintillation counter for 2 minutes. Comparison of counts with standard curves generated for cAMP using a similar protocol afforded the cAMP present after cell lysis.
(In general: Changes in cAMP serve as a functional read-out for many G protein-coupled receptors.)

Structures are written as SMILES.

Usually Emax stands for the greatest response seen or fitted, relative to the assay's reference. As a reminder, the Ki is a measure of affinity in units of concentration, obtained from inhibition or displacement.

With `COC(=O)C1CCCC1NC(=O)OCC1OC(n2cnc3c(N[C@@H]4CCOC4)ncnc32)C(O)C1O` (stereo partly drawn) [Compound 34], the Emax in test [1] is 17%; in test [3] it was -20%. The Ki in test [2] was 3460 nM.

As to `CCOC(=O)C1C2C=CC(C2)C1NC(=O)OCC1OC(n2cnc3c(N[C@@H]4CCOC4)ncnc32)C(O)C1O` (stereo partly drawn) [Compound 35, Ethyl 3-{[5-{6-[(3R)oxolan-3-yl)amiinolpurin-9-yl}(3S,2R,4R,5R)-3,4-dihydroxyoxolan-2-yl)methoxylcarbonylamino)(2S,3R)bicylo[2.2.]hept-5-ene2-carboxylate], the Emax in test [1] is 52%; in test [3], -4%. For the same compound, in test [2], the Ki stood at 1010 nM.

Regarding `CCOC(=O)C1C2CCC(C2)C1NC(=O)OCC1OC(n2cnc3c(N[C@@H]4CCOC4)ncnc32)C(O)C1O` (stereo partly drawn) [Compound 36, Ethyl 3-{[5-{6-[(3R)oxolan-3-yl)aminolpurin-9-yl}(3S,2R,4R,5R)-3,4-dihydroxyoxolan-2-yl)methoxylcarbonylamino}(2S,3R)bicylo[2.2.1]heptane-2-carboxylate], the Emax was found to be 41% in test [1] and 10% in test [3]. Also, in test [2], the Ki was determined as 1520 nM.

In the case of `O=C(NC1CCCC1OCc1ccccc1)OCC1OC(n2cnc3c(N[C@@H]4CCOC4)ncnc32)C(O)C1O` (stereo partly drawn) [Compound 37], the GTPγS in test [1] is 30%. Also, the Ki in test [2] turned out to be 4240 nM. Besides, in test [3], the cAMP was −6%.

For the compound `O=C(NC1CCC1)OCC1OC(n2cnc3c(N[C@@H]4CCOC4)ncnc32)C(O)C1O` (stereo partly drawn) [Compound 39, [(5-{6[((3R)oxolan-3-yl)amino}purin-9-yl}(3S,2R,4R,5R)3,4-dihydroxyoxolan-2-yl)methoxy]-N-cyclobutylcarboxaniide], the Emax is 67% in test [1] and 45% in test [3]. Also, the Ki in test [2] was 447 nM.

On to `C=CCNC(=O)OC[C@H]1O[C@@H](n2cnc3c(N[C@@H]4CCOC4)ncnc32)[C@H](O)[C@@H]1O` [Compound 41, [(5-{6[((3R)oxolan-3-yl)amino]purin-9-yl}(3S, 2R, 4R, 5R)-3,4-dihydroxyoxolan-2-yl)methoxy]-N-prop2-enylcarboxamide], for which the Emax in test [1] was determined as 48%; in test [3], 17%. For the same compound, in test [2], the inhibition constant (Ki) is 668 nM.

As for `CCOC(=O)CCNC(=O)OCC1OC(n2cnc3c(N[C@@H]4CCOC4)ncnc32)C(O)C1O` (stereo partly drawn) [Compound 42], the Emax stood at 47% in test [1] and 16% in test [3]. Further, the Ki in test [2] worked out at 3150 nM.

On to `COC(=O)CNC(=O)OCC1OC(n2cnc3c(N[C@@H]4CCOC4)ncnc32)C(O)C1O` (stereo partly drawn) [Compound 43], for which the Emax in test [1] is 53%; in test [3] it was 28%. For the same compound, the Ki in test [2] is 1700 nM.

In the case of `OC1C(COC(=S)NC2CCCC2OCc2ccccc2)OC(n2cnc3c(N[C@@H]4CCOC4)ncnc32)C1O` (stereo partly drawn) [Compound 56], the GTPγS in test [1] turned out to be 52%. Further, in test [2], the Ki was 1240 nM. The cAMP in test [3] is given as 43%.

`O=C(N[C@H]1CCC[C@@H]1O)OC[C@H]1O[C@@H](n2cnc3c(N[C@@H]4CCOC4)ncnc32)[C@H](O)[C@@H]1O` [Compound 61, {(5-{6[((3R)oxolan-3-yl)amino]purin-9-yl}(3S,2R,4R,5R)-3,4dihydroxyoxolan-2-yl)methoxy]-N-((1S,2S)-2-hydroxycyclopentyl)carboxamide]: the Emax in test [1] came out at 59%; in test [3], 53%. Further, the Ki in test [2] is 1570 nM.

For the compound `O=C(NC1CCCC1O)OCC1OC(n2cnc3c(N[C@@H]4CCOC4)ncnc32)C(O)C1O` (stereo partly drawn) [Compound 62], the Emax in test [1] came out at 42%; in test [3], 23%. In test [2], the Ki worked out at 2190 nM.

`O=C(NC1CCCC1)OCC1OC(n2cnc3c(NC4CCOC4)nc(Cl)nc32)C(O)C1O` [Compound 69, [(5-16-[((3R)oxolan-3-yl)amino]-2-chloropurin-9-yl}(3S,2R,4R,5R)-3,4-dihydroxyoxolan-2-yl)methoxy]-N-cyclopentylcarboxamide]: the Emax in test [1] stood at 50%; in test [3], 18%. Besides, the Ki in test [2] was 380 nM.

Regarding `OC1C(CNC(=S)OC2CCCC2)OC(n2cnc3c(N[C@@H]4CCOC4)ncnc32)C1O` (stereo partly drawn) [Compound 72, 2-{6-[((3R)oxolan-3-yl)amino]purin-9-yll(4S,2R,3R,5R)5-{[cyclopentyloxythioxomethyl)amino]methyl}oxolane3,4-diol], the Emax in test [1] was 93%; in test [3], 103%.

Take `CNC(=S)SCC1OC(n2cnc3c(NC4CCOC4)ncnc32)C(O)C1O` [Compound 74, 2-{6[((3R)oxolan-3-yl)ainio]purin-9yl}(4S,5S,2R,3R)5-{[(methylamniio)thioxomethylthio]methyl}oxolane3,4diol]: the figures for the Emax in test [1] and in test [3] were 95% and 82%, respectively.

For the compound `O=c1occn1CC1OC(n2cnc3c(N[C@@H]4CCOC4)ncnc32)C(O)C1O` (stereo partly drawn) [Compound 80], the Emax in test [1] is 80%; in test [3], 64%.
